From patent publication US20240425484A1, “INHIBITORS OF TYK2” (Atomwise Inc., priority 2023, published 2024)

What was measured:
TYK2-JH2 = target: T1, TYK2-JH2 (Homo sapiens, UniProt P29597); assay: TYK2-JH2 HTRF binding assay (ligand efficiency); details: calculated (Equation 1) from IC50 of the TYK-JH2 binding assay
T1 construct: TYK JH2 enzyme mix (ChemPartner: CP20210818A-BV); purchased ChemPartner CP20210818A-BV
Description: The following example describes the TYK2-JH2 HTRF binding assay used to determine the ligand efficiency of the TYK2 inhibitors.
To calculate ligand efficiency, Equation 1 is applied: […]
in which IC50 comes from the binding assay used to determine compound potency.
TYK JH2 enzyme mix (ChemPartner: CP20210818A-BV), tracer (ChemPartner: CP-0029472-051) and mAb Anti-6HIS Tb cryptate Gold (Cisbio: Cat No. 61HI2TLA) mix were prepared in assay buffer (10 mM MgCl2, 20 mM HEPES pH 7.5, 0.01% Triton X-100, 1 mM DTT). Compounds diluted in DMSO (Final Concentrations 0.1 to 0.000005 [μM]) and enzyme mix (0.5 nM Final Concentration) were added to 384 well plates, briefly centrifuged and incubated at room temperature for 10 minutes. After incubation, tracer mix (Tracer-35 nM final concentration); (MAb Anti-6HIS Tb cryptate Gold-0.5X final)) was added, briefly centrifuged then incubate at room temperature 60 minutes. After incubation, plates were read by Envision TR-FRET (Ex340/Em495/520) protocol (PerkinElmer-Envision 2104 multilabel plate reader).

[1] = Mouse pharmacokinetic study, oral administration; assay type: in vivo; details: male, mouse plasma, PO at 5 mg/kg; for half-life: read-out: Half-life t1/2; for Cmax: read-out: Maximum plasma concentration Cmax; for AUC(0-inf): read-out: Total systemic exposure AUCinf
Description: The following example describes the methods used to evaluate the pharmacokinetics of TYK2 inhibitors in vivo following dosing of a compound of the invention.
The pharmacokinetics of test compounds were evaluated in either male CD-1 mice or male C57BL/6 mice when administered by oral gavage and IV bolus injection. The animals were allowed free access to food and water before administration. The plasma samples were analyzed by LC-MS/MS and the concentration of test compound at each time point was determined by linear regression. Pharmacokinetic parameters were calculated from the plasma concentrations by non-compartmental modeling using WinNonlin 8.2.
Oral composition. To prepare a pharmaceutical composition for oral delivery, the test articles described herein were dissolved in DMSO and then mixed with necessary volume of PEG400 followed by 0.9% sterile saline or 5% dextrose in water or 5% Kolliphor HS 15 in saline to provide the final concentrations of 0.5 mg/mL or 1 mg/mL (Table 8). The resultant mixtures were suitable for oral administration.
The PK parameters measured in mouse plasma after treatment with TYK2 inhibitor compounds via PO (oral administration) at 5 mg/kg are summarized below in Tables 9-11.

T1 sequence (P29597 589-875 limits assumed): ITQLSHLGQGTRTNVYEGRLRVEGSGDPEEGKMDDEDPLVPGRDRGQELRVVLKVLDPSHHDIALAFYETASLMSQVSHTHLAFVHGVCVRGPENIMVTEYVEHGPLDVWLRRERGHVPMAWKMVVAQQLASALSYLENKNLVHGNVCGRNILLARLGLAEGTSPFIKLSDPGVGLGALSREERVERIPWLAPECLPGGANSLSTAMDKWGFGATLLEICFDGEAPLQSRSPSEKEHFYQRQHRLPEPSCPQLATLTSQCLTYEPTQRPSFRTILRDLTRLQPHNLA

| SMILES | Ligand Efficiency (TYK2-JH2) | half-life [1] [min] | Cmax [1] [ng/mL] | AUC(0-inf) [1] [ng·h/mL] |
| --- | --- | --- | --- | --- |
| Cc1ccnc(Nc2cc(Nc3ccccc3S(C)(=O)=O)ncn2)c1 [Compound 44, N^4-(4-methylpyridin-2-yl)-N^6-(2-(methylsulfonyl)phenyl)pyrimidine-4,6-diamine] | ††† (†††: >0.39) | > 90 | < 800 | < 1000 |
| CC(c1ccc(Nc2cc(Nc3ncccc3S(C)(=O)=O)ncn2)nc1C(F)(F)F)N1CC2(COC2)C1 (stereo in doubt) [Compound 11, (R)—N^4-(5-(1-(2-oxa-6-azaspiro[3.3]heptan-6-yl)ethyl)-6-(trifluoromethyl)pyridin-2-yl)-N^6-(3-(methylsulfonyl)pyridin-2-yl)pyrimidine-4,6-diamine] |  | > 90 | 800 to 1500 | > 2000 |
| Cc1nc(Nc2cc(Nc3ncccc3S(C)(=O)=O)ncn2)ccc1NC1(C)COC1 [Compound 6, N^4-(6-methyl-5-((3-methyloxetan-3-yl)amino)pyridin-2-yl)-N^6-(3-(methylsulfonyl)pyridin-2-yl)pyrimidine-4,6-diamine] | ††† (†††: >0.39) | < 60 | > 1500 | > 2000 |
| C[C@H]1CN(C2CC2)CCN1c1ccc(Nc2cc(Nc3ncccc3S(C)(=O)=O)ncn2)nc1 [Compound 8, (S)—N^4-(5-(4-cyclopropyl-2-methylpiperazin-1-yl)pyridin-2-yl)-N^6-(3-(methylsulfonyl)pyridin-2-yl)pyrimidine-4,6-diamine] | ††† (†††: >0.39) | > 90 | 800 to 1500 | 1000 to 2000 |
| Cc1nc(Nc2cc(Nc3ncccc3S(C)(=O)=O)ncn2)ccc1[C@H](C)N1CC2(COC2)C1 (stereo in doubt) [Compound 12, N^4-(5-(1-(2-oxa-6-azaspiro[3.3]heptan-6-yl)ethyl)-6-methylpyridin-2-yl)-N^6-(3-(methylsulfonyl)pyridin-2-yl)pyrimidine-4,6-diamine] | ††† (†††: >0.39) | < 60 | > 1500 | 1000 to 2000 |
| Cc1cccc(Nc2cc(Nc3ccccc3S(C)(=O)=O)nc(N)n2)n1 [Compound 57, N^4-(6-methylpyridin-2-yl)-N^6-(2-(methylsulfonyl)phenyl)pyrimidine-2,4,6-triamine] | ††† (†††: >0.39) |  |  |  |
| CS(=O)(=O)c1cccnc1Nc1cc(Nc2ccc3c(n2)CCCC3N2CC3(COC3)C2)ncn1 (stereo in doubt) [Compound 5, (R)—N^4-(5-(2-oxa-6-azaspiro[3.3]heptan-6-yl)-5,6,7,8-tetrahydroquinolin-2-yl)-N^6-(3-(methylsulfonyl)pyridin-2-yl)pyrimidine-4,6-diamine] |  | > 90 | > 1500 | > 2000 |
| COc1ccnc(Nc2cc(Nc3cccc(C)n3)ncn2)c1S(C)(=O)=O [Compound 65, N^4-(4-methoxy-3-(methylsulfonyl)pyridin-2-yl)-N^6-(6-methylpyridin-2-yl)pyrimidine-4,6-diamine] | ††† (†††: >0.39) |  |  |  |
| Cc1ccnc(Nc2cc(Nc3ccccc3C(N)=O)ncn2)n1 [Compound 58, 2-(6-(4-methylpyrimidin-2-ylamino)pyrimidin-4-ylamino)benzamide] | ††† (†††: >0.39) |  |  |  |
| Cc1cccc(Nc2cc(Nc3ncccc3C(N)=O)ncn2)n1 [Compound 52, 2-((6-((6-methylpyridin-2-yl)amino)pyrimidin-4-yl)amino) nicotinamide] | ††† (†††: >0.39) |  |  |  |
| CC(c1ccc(Nc2cc(Nc3ncccc3S(C)(=O)=O)ncn2)nc1)N1CCCC1 (stereo in doubt) [Compound 15, (R)—N^4-(3-(methylsulfonyl)pyridin-2-yl)-N^6-(5-(1-(pyrrolidin-1-yl)ethyl)pyridin-2-yl)pyrimidine-4,6-diamine] | ††† (†††: >0.39) |  |  |  |
| CS(=O)(=O)c1cccnc1Nc1cc(Nc2ccc(NC3CC(F)(F)C3)cn2)ncn1 [Compound 37, N^4-(5-(3,3-difluorocyclobutylamino)pyridin-2-yl)-N^6-(3-(methylsulfonyl)pyridin-2-yl)pyrimidine-4,6-diamine] | ††† (†††: >0.39) |  |  |  |
| CC(c1ccc(Nc2cc(Nc3ncc(C4COC4)cc3S(C)(=O)=O)ncn2)nc1)N1CC2(COC2)C1 (centres unmarked) [Compound 78, N^4-(5-(1-(2-oxa-6-azaspiro[3.3]heptan-6-yl)ethyl)pyridin-2-yl)-N^6-(3-(methylsulfonyl)-5-(oxetan-3-yl)pyridin-2-yl)pyrimidine-4,6-diamine] | † (†: <0.37) |  |  |  |
| CS(=O)(=O)c1ccccc1Nc1cc(Nc2ccc3c(n2)CCCC3N2CC3(CCOCC3)C2)ncn1 (centres unmarked) [Compound 27, N^4-(5-(7-oxa-2-azaspiro[3.5]nonan-2-yl)-5,6,7,8-tetrahydroquinolin-2-yl)-N^6-(2-(methylsulfonyl)phenyl)pyrimidine-4,6-diamine] | † (†: <0.37) |  |  |  |
| CS(=O)(=O)c1cccnc1Nc1cc(Nc2cccc(C(F)(F)F)n2)ncn1 [Compound 19, N^4-(3-(methylsulfonyl)pyridin-2-yl)-N^6-(6-(trifluoromethyl)pyridin-2-yl)pyrimidine-4,6-diamine] | ††† (†††: >0.39) |  |  |  |
| Cn1ccc(Nc2cc(Nc3ccccc3C(N)=O)ncn2)n1 [Compound 67, 2-((6-((1-methyl-1H-pyrazol-3-yl)amino)pyrimidin-4-yl)amino)benzamide] | ††† (†††: >0.39) |  |  |  |
| Cn1ccc(Nc2cc(Nc3ccccc3S(C)(=O)=O)ncn2)n1 [Compound 66, N^4-(1-methyl-1H-pyrazol-3-yl)-N^6-(2-(methylsulfonyl)phenyl)pyrimidine-4,6-diamine] | ††† (†††: >0.39) |  |  |  |
| Cc1cccc(Nc2cc(Nc3cccnc3S(C)(=O)=O)ncn2)n1 [Compound 59, N^4-(6-methylpyridin-2-yl)-N^6-(2-(methylsulfonyl)pyridin-3-yl)pyrimidine-4,6-diamine] | ††† (†††: >0.39) |  |  |  |
| CC(NC1CC(F)(F)C1)c1ccc(Nc2cc(Nc3ncccc3S(C)(=O)=O)ncn2)nc1 (centres unmarked) [Compound 35, N^4-(5-(1-(3,3-difluorocyclobutylamino)ethyl)pyridin-2-yl)-N^6-(3-(methylsulfonyl)pyridin-2-yl)pyrimidine-4,6-diamine] | ††† (†††: >0.39) |  |  |  |
| Cc1cccc(Nc2cc(Nc3cccnc3C(N)=O)ncn2)n1 [Compound 50, 3-((6-((6-methylpyridin-2-yl)amino)pyrimidin-4-yl)amino) picolinamide] | ††† (†††: >0.39) |  |  |  |
| Cc1ccnc(Nc2cc(Nc3ccccc3C(N)=O)ncn2)c1 [Compound 45, 2-((6-((4-methylpyridin-2-yl)amino)pyrimidin-4-yl)amino)benzamide] | ††† (†††: >0.39) |  |  |  |
| Cc1cccc(Nc2cc(Nc3ccccc3S(C)(=O)=O)nc(C)n2)n1 [Compound 56, 2-methyl-N^4-(6-methylpyridin-2-yl)-N^6-(2-(methylsulfonyl)phenyl)pyrimidine-4,6-diamine] | † (†: <0.37) |  |  |  |
| Cc1cccc(Nc2cc(Nc3ccncc3C(N)=O)ncn2)n1 [Compound 51, 4-((6-((6-methylpyridin-2-yl)amino)pyrimidin-4-yl)amino) nicotinamide] | ††† (†††: >0.39) |  |  |  |
| C[C@H]1COCCN1c1ccc(Nc2cc(Nc3ccccc3S(C)(=O)=O)ncn2)nc1 [Compound 54, (S)—N^4-(5-(3-methylmorpholino)pyridin-2-yl)-N^6-(2-(methylsulfonyl)phenyl)pyrimidine-4,6-diamine] | † (†: <0.37) |  |  |  |
| Cn1cc(-c2ccnc(Nc3cc(Nc4ccc(NC5(C)COC5)cn4)ncn3)c2S(C)(=O)=O)cn1 [Compound 72, N^4-(4-(1-methyl-1H-pyrazol-4-yl)-3-(methylsulfonyl)pyridin-2-yl)-N^6-(5-(3-methyloxetan-3-ylamino)pyridin-2-yl)pyrimidine-4,6-diamine] | † (†: <0.37) |  |  |  |
